{"source": "patent US8361781B2", "about": "“Cell aggregation and encapsulation device and method” (Brown University, priority 2006, dated 2013)", "assay_type_in_all_cases": "cell-based, human", "key": {"NHFs [1]": {"tested_on": "NHFs", "assay": "NHF aggregation in honeycomb-structured cell aggregation devices", "conditions": "NHFs maintained in Y-27632 solution, day 5; untreated NHFs contracted up and off of pegs within 1 day", "protocol": "In this experiment, cell aggregation devices were formed from agarose gels as described above, but agarose gels were micromolded with honeycomb-shaped recesses instead of troughs or a tori. The honeycomb-shaped recesses are essentially overlapping, tori-shaped recesses: There are 13 pegs (1 central, 6 concentric around the central peg and 6 outer pegs at 0°, 60°, 120°, 180°, 240°, 300° and 360°) within a network of recesses […] and with bottoms rounded with 200 μm radii. Time lapse microscopy was again used to monitor self-assembly of the NHF cells alone, the H35 cells alone and 50:50 mixtures of NHF cells and H35 cells as described above. The results are shown in FIG. 8, at time 0 (top row), 10 hours post-seeding (middle row) and 20 hours post-seeding (bottom row) with the aggregated NHF cells in column A, the aggregated H35 cells in column B and the aggregated 1:1 mixture of NHF and H35 cells in column C. The aggregated NHF cells quickly thinned, became taught and popped off the outer pegs of the honeycomb shaped substrate. Once freed from the substrate, the honeycomb-shaped aggregates of NHF cells contracted in a uniform manner but maintained its shape. The aggregated H35 cells thinned more slowly, maintaining contact with the outer pegs and staying within the molds. […]"}, "NHFs [2]": {"tested_on": "NHFs", "assay": "Viability staining of treated NHF honeycombs", "conditions": "NHF honeycombs maintained in Y-27632 solution, day 5", "protocol": "NHF cells alone, H35 cells alone, and 50:50 mixtures of NHF and H35 cells were seeded into the trough aggregation devices and the tori aggregation devices as described in Example 2 and allowed to aggregate. Briefly, NHF cells derived from neonatal foreskins and H35 rat hepatoma cells were expanded in DMEM supplemented with 10% fetal bovine serum (FBS) and 1% penicillin/streptomycin solution. NHF cells were incubated in a 10% CO2 atmosphere and H35 cells were incubated in 5% CO2. The mixture experiments were a 50:50 mix of both cell types and were maintained in a 5% CO2 atmosphere. The cells were stained with fluorescent dyes (NHF cells with CellTracker Red CMTPX and H35 cells with CellTracker Green CMFDA from Invitrogen) to allow their aggregation in the mixed populations to be followed and their aggregated position visualized. Cells used in experiments were between passage 3 and passage 9. Cell viability was determined using the LIVE/DEAD Viability/Cytotoxicity Kit (Invitrogen) in accordance with the manufacturer's instructions.\nLastly, NHFs were seeded onto honeycomb-structured cell aggregation devices made as described in Example 9B and maintained in Y-27632 solution."}, "NHFs [3]": {"tested_on": "NHFs", "assay": "Toroid stability of NHFs in micro-molded agarose toroidal aggregation devices", "source_text": "Micro-molded, non-adhesive, cell aggregation devices, each having a plurality of cell aggregation recesses in the shape of either troughs or tori were made following the method described in Example 1. Agarose was employed as the hydrogel material and the cell aggregation recess features were as follows. Troughs were 400 μm wide with bottoms rounded with 200 μm radii. There were 21 rows of troughs of increasing length per gel. Each row had 11 troughs, two of which were 400 μm long, then one each of 600 μm through 1800 μm increasing at 200 μm lengths, then two 2200 μm troughs. The 2200 μm troughs were used for all experiments except those for FIG. 9c, which presents data from all trough lengths. […] A z-stack of images from the 4× objective with 10-50 μm between focal planes was collected at each time point using custom-designed Openlab 4.0.2 automations and images were analyzed using Volocity 3.1 (Improvision). […] The core circumference of tori was measured as a continuous circumferential line located at the estimated midpoint of the perpendicular width of the toroid. Micro-molded agarose toroidal aggregation devices (n=208) made as described in Example 9 were seeded with untreated NHFs and NHFs treated with 100 μM of the cell contraction inhibitor Y-27632 (Calbiochem (EMD Biosciences, Inc.), San Diego, Calif.) and the number of stable toroids with patent centers was measured over time. […]"}, "NHFs [4]": {"tested_on": "NHFs", "assay": "Rod aggregation kinetics in 2.2 mm troughs after removal of drug (time-lapse)", "conditions": "100 μM Y-27632 initially, removed at 1.5 hrs and replaced with normal medium, FIG. 11", "protocol": "Excess medium was aspirated from the wells and 200 μL of a single cell suspension was pipetted into the aggregation recess of each gel. Medium was added to the wells after a 1.5 hour incubation period wherein cells settled into the aggregation recesses and commenced the self-assembly process. Medium was exchanged every other day. […] A z-stack of images from the 4× objective with 10-50 μm between focal planes was collected at each time point using custom-designed Openlab 4.0.2 automations and images were analyzed using Volocity 3.1 (Improvision). Bright-field and fluorescent images were obtained using an Olympus IX70 microscope equipped with an AxioCam MRc digital camera. For the time-lapse experiments, medium was carefully added 20-30 minutes post seeding, before the devices were transferred to the time lapse microscope. Measurements of morphological changes were performed with ImageJ data analysis software. The length of a rod was the length of a line drawn from end to end of the structure (long-axis length). The core circumference of tori was measured as a continuous circumferential line located at the estimated midpoint of the perpendicular width of the toroid. Gels with trough features 2.2 mm in length were then seeded with NHFs or with NHFs treated initially with 100 μM Y-27632 and imaged every 10 minutes. At 1.5 hrs, the Y-27632 solution was removed and replaced with normal medium. […]"}, "NHF cells": {"tested_on": "NHF cells", "assay": "Rod length change kinetics of NHF aggregates in 2.2 mm trough features", "conditions": "NHF cells treated with 50 μM and 200 μM Y-27632, 2.2 mm troughs, FIG. 10", "source_text": "Micro-molded, non-adhesive, cell aggregation devices, each having a plurality of cell aggregation recesses in the shape of either troughs or tori were made following the method described in Example 1. Agarose was employed as the hydrogel material and the cell aggregation recess features were as follows. Troughs were 400 μm wide with bottoms rounded with 200 μm radii. There were 21 rows of troughs of increasing length per gel. Each row had 11 troughs, two of which were 400 μm long, then one each of 600 μm through 1800 μm increasing at 200 μm lengths, then two 2200 μm troughs. The 2200 μm troughs were used for all experiments except those for FIG. 9c, which presents data from all trough lengths. […] A z-stack of images from the 4× objective with 10-50 μm between focal planes was collected at each time point using custom-designed Openlab 4.0.2 automations and images were analyzed using Volocity 3.1 (Improvision). […] The core circumference of tori was measured as a continuous circumferential line located at the estimated midpoint of the perpendicular width of the toroid. […] Next, aggregation devices with trough features 2.2 mm in length were made as described in previous examples and seeded with NHF cells, NHF cells in serum-free medium, NHF cells treated with 50 μM of Y-27632 and NHF cells treated with 200 μM of Y-27632 and the lengths of resulting rod shaped aggregates were measured. […]"}}, "data": [{"smiles": "C[C@@H](N)[C@H]1CC[C@H](C(=O)Nc2ccncc2)CC1", "note": "[Y-27632]", "values": [{"measurement": "maintenance of honeycomb structure", "setting": "NHFs [1]", "result": "remained intact in the honeycomb-shaped recesses at day 5"}, {"measurement": "cell viability (viability staining)", "setting": "NHFs [2]", "result": "majority of the cells were living at day 5"}, {"measurement": "treated NHFs still having patent centers (stable toroids)", "setting": "NHFs [3]; 100 μM Y-27632, day 1, n=104, all untreated NHFs had progressed to spheroids", "result": 90, "unit": "%"}, {"measurement": "treated NHFs still having patent centers (stable toroids)", "setting": "NHFs [3]; 100 μM Y-27632, day 2, n=104", "result": 5, "unit": "%"}, {"measurement": "aggregation kinetics after removal of the drug", "setting": "NHFs [4]", "result": "progressing with similar kinetics to those of untreated NHFs"}, {"measurement": "effect on length change kinetics of rod shaped aggregates", "setting": "NHF cells", "result": "dramatically slowed length change kinetics in rods"}]}]}
